Experimental data: BigSolDB 2.1

Conditions: 298.15 K

## c1cc2cccc3c4cccc5cccc(c(c1)c23)c54
In acetone
  solubility (mole fraction): 0.000301
In acetonitrile
  solubility (mole fraction): 4.68e-05
In chlorobenzene
  solubility (mole fraction): 0.00177
In chloroform
  solubility (mole fraction): 0.00134
In ethanol
  solubility (mole fraction): 2.42e-05
In n-hexane
  solubility (mole fraction): 5.53e-05
In tetrachloromethane
  solubility (mole fraction): 0.000444

## O=C(O)c1cccnc1Nc1cccc(C(F)(F)F)c1
In acetone
  solubility (mole fraction): 0.0288
In acetonitrile
  solubility (mole fraction): 0.00131
In chlorobenzene
  solubility (mole fraction): 0.000297
In chloroform
  solubility (mole fraction): 0.00166
In ethanol
  solubility (mole fraction): 0.0138
In n-hexane
  solubility (mole fraction): 5.35e-06
In tetrachloromethane
  solubility (mole fraction): 7.06e-05

## c1ccc2cc3ccccc3cc2c1
In acetone
  solubility (mole fraction): 0.00318
In acetonitrile
  solubility (mole fraction): 0.000765
In chlorobenzene
  solubility (mole fraction): 0.00946
In chloroform
  solubility (mole fraction): 0.00995
In ethanol
  solubility (mole fraction): 0.000428
In n-hexane
  solubility (mole fraction): 0.0012
In tetrachloromethane
  solubility (mole fraction): 0.00481

## c1ccc(N(c2ccc(-c3ccc(N(c4ccccc4)c4cccc5ccccc45)cc3)cc2)c2cccc3ccccc23)cc1
In acetone
  solubility (mole fraction): 2.11e-05
In acetonitrile
  solubility (mole fraction): 1.56e-06
In chlorobenzene
  solubility (mole fraction): 0.00131
In chloroform
  solubility (mole fraction): 0.00268
In ethanol
  solubility (mole fraction): 5.59e-07
In n-hexane
  solubility (mole fraction): 3.15e-06
In tetrachloromethane
  solubility (mole fraction): 0.000234

## COc1ccc2c(c1)c(CC(=O)O)c(C)n2C(=O)c1ccc(Cl)cc1
In acetone
  solubility (mole fraction): 0.0234
In acetonitrile
  solubility (mole fraction): 0.00239
In chlorobenzene
  solubility (mole fraction): 0.0023
In chloroform
  solubility (mole fraction): 0.00876
In cyclohexane
  solubility (mole fraction): 1.87e-05
In ethanol
  solubility (mole fraction): 0.00441
In ethyl acetate
  solubility (mole fraction): 0.0111
In ethylene glycol
  solubility (mole fraction): 0.000509
In isopropanol
  solubility (mole fraction): 0.00465
In methanol
  solubility (mole fraction): 0.00228
In n-heptane
  solubility (mole fraction): 6.13e-07
In n-hexane
  solubility (mole fraction): 4.84e-07
In n-pentane
  solubility (mole fraction): 3.31e-07
In n-propanol
  solubility (mole fraction): 0.00433
In tetrachloromethane
  solubility (mole fraction): 4.2e-05
In toluene
  solubility (mole fraction): 0.000908

## c1ccc2c(c1)c1ccccc1n2-c1ccc(-c2ccc(-n3c4ccccc4c4ccccc43)cc2)cc1
In acetone
  solubility (mole fraction): 0.000153
In acetonitrile
  solubility (mole fraction): 7.54e-06
In chlorobenzene
  solubility (mole fraction): 0.00491
In chloroform
  solubility (mole fraction): 0.0083
In ethanol
  solubility (mole fraction): 2.25e-06
In n-hexane
  solubility (mole fraction): 9.41e-06
In tetrachloromethane
  solubility (mole fraction): 0.000997

## c1ccc2cc3cc4ccccc4cc3cc2c1
In acetone
  solubility (mole fraction): 3.27e-05
In acetonitrile
  solubility (mole fraction): 7.97e-06
In chlorobenzene
  solubility (mole fraction): 0.00014
In chloroform
  solubility (mole fraction): 0.000132
In ethanol
  solubility (mole fraction): 6.91e-06
In n-hexane
  solubility (mole fraction): 1.5e-05
In tetrachloromethane
  solubility (mole fraction): 4.61e-05
